Tests used:
Experiment in all cases: relative viability (nuclei count vs DMSO), 5 days (fraction); higher = more cells survive
[1] = compound: CCN(CCO)CCCC(C)Nc1ccnc2cc(Cl)ccc12 [Hydroxychloroquine] + Nc1ncn([C@H]2C[C@H](O)[C@@H](CO)O2)c(=O)n1 [Decitabine] (partner 2 µM)
Outline: (§1)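 Relative viability divides the nuclei count in treated wells by that in vehicle wells. Lung cancer cell lines were seeded in 1536-well plates, dosed by pin tool the next day, and fixed and stained after 5 days in one step with final 0.05% Triton X-100, 1% formaldehyde and 1 ug/ml Hoechst. Dosing was a single drug or a fixed anchor-drug dose plus five library-drug doses (not always all listed) in √10 steps, and values are medians of duplicate plates imaged at 4×.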

[2] = compound: CCN(CCO)CCCC(C)Nc1ccnc2cc(Cl)ccc12 [Hydroxychloroquine] + C[C@@H](Oc1cc(-c2cnn(C3CCNCC3)c2)cnc1N)c1c(Cl)ccc(F)c1Cl [Crizotinib] (partner 1 µM)
Outline: as §1

[3] = compound: CCN(CCO)CCCC(C)Nc1ccnc2cc(Cl)ccc12 [Hydroxychloroquine] + Cc1cc(Nc2cc(N3CCN(C)CC3)nc(Sc3ccc(NC(=O)C4CC4)cc3)n2)n[nH]1 [Tozasertib] (partner 0.1 µM)
Outline: as §1

[4] = compound: CCN(CCO)CCCC(C)Nc1ccnc2cc(Cl)ccc12 [Hydroxychloroquine] + CS(=O)(=O)CCNCc1ccc(-c2ccc3ncnc(Nc4ccc(OCc5cccc(F)c5)c(Cl)c4)c3c2)o1 [Lapatinib] (partner 2 µM)
Outline: as §1

| Cell Line | relative viability ([1]; first compound 0.5 µM) | relative viability ([1]; first compound 1.581 µM) | relative viability ([1]; first compound 5 µM) | relative viability ([1]; first compound 15.81 µM) | relative viability ([1]; first compound 50 µM) | relative viability ([2]; first compound 0.5 µM) | relative viability ([2]; first compound 1.581 µM) | relative viability ([2]; first compound 5 µM) | relative viability ([2]; first compound 15.81 µM) | relative viability ([2]; first compound 50 µM) | relative viability ([3]; first compound 0.5 µM) | relative viability ([3]; first compound 1.581 µM) | relative viability ([3]; first compound 5 µM) | relative viability ([3]; first compound 15.81 µM) | relative viability ([3]; first compound 50 µM) | relative viability ([4]; first compound 0.5 µM) | relative viability ([4]; first compound 1.581 µM) | relative viability ([4]; first compound 5 µM) | relative viability ([4]; first compound 15.81 µM) | relative viability ([4]; first compound 50 µM) |
| --- | --- | --- | --- | --- | --- | --- | --- | --- | --- | --- | --- | --- | --- | --- | --- | --- | --- | --- | --- | --- |
| LCLC-103H | 0.699 | 0.751 | 0.727 | 0.736 | 0.767 | 1.03 | 1.01 | 0.951 | 1.04 | 1.14 | 0.433 | 0.404 | 0.541 | 0.507 | 0.56 | – | – | – | – | – |
| NCI-H441 | 0.23 | 0.326 | 0.241 | 0.245 | 0.228 | 0.624 | 0.824 | 0.92 | 0.734 | 0.663 | 0.759 | 0.578 | 0.61 | 0.879 | 0.591 | – | – | – | – | – |
| NCI-H1299 | – | – | – | – | – | 0.999 | 0.937 | 0.91 | 0.98 | 0.693 | – | – | – | – | – | 0.965 | 0.914 | 0.903 | 0.919 | 0.936 |
| NCI-H1395 | 0.665 | 0.68 | 0.741 | 0.763 | 0.704 | – | – | – | – | – | 0.74 | 0.717 | 0.73 | 0.824 | 0.723 | 1.25 | 1.09 | 0.907 | 0.877 | 0.955 |
| NCI-H1563 | – | – | – | – | – | 0.808 | 0.833 | 0.848 | 0.83 | 0.806 | – | – | – | – | – | 0.839 | 0.756 | 0.951 | 0.798 | 0.866 |
| NCI-H1648 | 0.51 | 0.447 | 0.512 | 0.518 | 0.484 | – | – | – | – | – | – | 0.498 | 0.684 | 0.486 | 0.412 | – | – | – | – | – |
| NCI-H1703 | – | – | – | – | – | 0.851 | – | 0.592 | 0.74 | 0.921 | – | – | – | – | – | 0.959 | – | 1.05 | 1.29 | 0.763 |
| NCI-H1792 | 0.56 | 0.521 | 0.563 | 0.461 | 0.583 | 0.951 | 1.05 | 1.01 | 1.08 | 1.07 | – | – | – | – | – | 0.889 | 0.923 | 0.831 | 0.793 | 0.93 |
| NCI-H1793 | 0.542 | 0.466 | 0.42 | 0.412 | 0.259 | – | – | – | – | – | 0.521 | 0.266 | 0.268 | 0.366 | 0.308 | 0.57 | 0.556 | 0.649 | 0.603 | 0.691 |
| NCI-H2228 | – | – | – | – | – | 0.461 | 0.46 | 0.46 | 0.491 | 0.427 | 0.281 | 0.201 | 0.285 | 0.259 | 0.321 | 1.05 | 0.999 | 0.972 | 0.705 | 1.18 |
| NCI-H2342 | 0.774 | 0.765 | 0.782 | 0.756 | 0.769 | – | – | – | – | – | 0.493 | 0.467 | 0.439 | 0.508 | 0.627 | – | – | – | – | – |
